In patent US20190105367A1, “ANTIMICROBIAL 4-OXOQUINOLIZINES” (Emergent Product Development Gaithersburg Inc., priority 2011, published 2019):
In brackets after ≈: the same amount, converted by molar mass. Read-outs that look alike come from different tables or passages of the source.

What was measured:
[1] = system: A. baumannii NCTC 13301; assay: MIC without and with sub-inhibitory polymyxin B (Example 4); format: cell-based, Acinetobacter baumannii; conditions: +[…] PB, 2nd experiment
[2] = system: strains of A. baumannii and one strain of Acinetobacter sp.; assay: MIC with sub-inhibitory concentrations (0.25x MIC) of polymyxin B, panel of Acinetobacter strains (Example 4); format: cell-based
[3] = system: A. baumannii ATCC 19606; assay: Preliminary MBC without and with sub-inhibitory polymyxin B (Example 4); format: cell-based, Acinetobacter baumannii; conditions: Acinetobacter baumannii
[4] = system: A. baumannii NCTC 13301; assay: MIC without and with sub-inhibitory polymyxin B (Example 4); format: cell-based, Acinetobacter baumannii
[5] = system: A. baumannii A401; assay: Preliminary MBC without and with sub-inhibitory polymyxin B (Example 4); format: cell-based, Acinetobacter baumannii; conditions: Acinetobacter baumannii
[6] = system: A. baumannii A329; assay: as above; format: cell-based, Acinetobacter baumannii; conditions: Acinetobacter baumannii, A329, A. baumannii A329, +0.06 μg/ml PB, 2nd experiment, read-out: MBC
[7] = system: A. baumannii A390; assay: MIC without and with sub-inhibitory polymyxin B (Example 4); format: cell-based, Acinetobacter baumannii; conditions: +0.06 μg/ml PB, 2nd experiment
[8] = system: A. baumannii ATCC 19606; assay: as above; format: cell-based, Acinetobacter baumannii; conditions: for MIC without PB/MIC + PB: A. baumannii ATCC 19606; for MIC: Acinetobacter baumannii
[9] = system: A. baumannii J2; assay: as above; format: cell-based, Acinetobacter baumannii; conditions: for MIC without PB/MIC + PB: A. baumannii J2; for MIC: Acinetobacter baumannii
[10] = system: A. baumannii A401; assay: as above; format: cell-based, Acinetobacter baumannii
[11] = system: A. baumannii A14; assay: as above; format: cell-based, Acinetobacter baumannii; conditions: 1st experiment
[12] = system: A. baumannii A473; assay: as above; format: cell-based, Acinetobacter baumannii; conditions: +0.06 μg/ml PB, 2nd experiment
[13] = system: A. baumannii A489; assay: as above; format: cell-based, Acinetobacter baumannii; conditions: for MIC without PB/MIC + PB: A. baumannii A489; for MIC: Acinetobacter baumannii
[14] = system: A. baumannii A472; assay: as above; format: cell-based, Acinetobacter baumannii; conditions: for MIC: Acinetobacter baumannii
[15] = system: Acinetobacter sp. (H064200250); assay: as above; format: cell-based; conditions: for MIC: Acinetobacter
[16] = system: A. baumannii A387; assay: as above; format: cell-based, Acinetobacter baumannii; conditions: for MIC without PB/MIC + PB: A. baumannii A387; for MIC: Acinetobacter baumannii
[17] = system: A. baumannii J2; assay: Preliminary MBC without and with sub-inhibitory polymyxin B (Example 4); format: cell-based, Acinetobacter baumannii; conditions: Acinetobacter baumannii, preliminary MBC
[18] = system: A. baumannii A472; assay: as above; format: cell-based, Acinetobacter baumannii; conditions: Acinetobacter baumannii, preliminary MBC
[19] = system: Acinetobacter sp. (H064200250); assay: as above; format: cell-based; conditions: Acinetobacter, preliminary MBC
Procedure, shortened: (§1)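 Plates were incubated for 18-20 hours at 37° C. MBC was taken as the lowest concentration giving colony growth ca. 90% below the positive control, typically where only single colonies or none appeared.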

[20] = system: A. baumannii A387; assay: as above; format: cell-based, Acinetobacter baumannii; conditions: Acinetobacter baumannii
[21] = system: A. baumannii A390; assay: as above; format: cell-based, Acinetobacter baumannii; conditions: Acinetobacter baumannii, A390, A. baumannii A390, +0.06 μg/ml PB, 2nd experiment, read-out: MBC
Procedure, shortened: as §1

[22] = system: A. baumannii NCTC 13301; assay: as above; format: cell-based, Acinetobacter baumannii; conditions: Acinetobacter baumannii
Procedure, shortened: as §1

[23] = system: A. baumannii A14; assay: as above; format: cell-based, Acinetobacter baumannii; conditions: 2nd experiment
Procedure, shortened: as §1

[24] = system: A. baumannii A473; assay: as above; format: cell-based, Acinetobacter baumannii; conditions: Acinetobacter baumannii, A473, A. baumannii A473, +0.06 μg/ml PB, 2nd experiment, read-out: MBC
Procedure, shortened: as §1

[25] = ratio, PB 0.06 μg/ml, 1st experiment

In the case of `Cc1c(-c2ccc(N)cc2)c(F)cn2c(=O)c(C(=O)O)cc(C3CC3)c12` [Compound 7, 8-(4-amino-phenyl)-1-cyclopropyl-7-fluoro-9-methyl-4-oxo-quinolizine-3-carboxylic acid], the “MIC without PB/MIC + PB” value ([1]; A. baumannii NCTC 13301) was ≥512, the MIC ([1]; Acinetobacter baumannii, NCTC13301, A. baumannii NCTC 13301, read-out: MIC) was ≤ 0.03 µg/mL and the “MIC range with PB (0.25x MIC) Oct. 1, 2008 n = 8” value ([2]; 1st experiment, […] polymyxin B, ATCC 19606, A329, A390 and A473 not taken) was ≤0.03 to 1 µg/mL. For the same compound, the “MIC range with PB (0.25x MIC) Oct. 14, 2008 n = 11” value ([2]; 2nd experiment, 0.06 μg/ml polymyxin B, all strains except the ATCC strain) was ≤0.03 to 2 µg/mL, the MBC ([3]; ATCC19606, A. baumannii ATCC 19606, +0.06 μg/ml PB, 2nd experiment, read-out: MBC) was ≤ 0.03 µg/mL and the MBC ([3]; ATCC19606, read-out: MBC +0.06 μg/ml PB, A. baumannii ATCC 19606, +0.06 μg/ml polymyxin B, 1st experiment) was ≤ 0.03 µg/mL. For the same compound, the “MIC without PB/MIC + PB” value ([4]; A. baumannii NCTC 13301, ratio, PB […], 1st experiment) was 256, the MIC ([4]; Acinetobacter baumannii, NCTC13301, read-out: MIC +[…] PB) was 0.06 µg/mL (≈ 0.17 µM) and the MBC ([5]; A401, A baumannii A 401, +0.06 μg/ml PB, 2nd experiment, read-out: MBC) was 0.5 µg/mL (≈ 1.42 µM). For the same compound, the MBC ([5]; A401, read-out: MBC +0.06 μg/ml PB, A baumannii A 401, +0.06 μg/ml polymyxin B, 1st experiment) was 0.5 µg/mL, the MBC [6] was 2 µg/mL (≈ 5.68 µM) and the “MIC without PB/MIC + PB” value ([7]; A. baumannii A390) was 128. For the same compound, the MIC ([7]; Acinetobacter baumannii, A390, A. baumannii A390, read-out: MIC) was 0.125 µg/mL (≈ 0.355 µM), the “MIC without PB/MIC + PB” value ([8]; +0.06 μg/ml PB, 2nd experiment) was ≥8 and the “MIC without PB/MIC + PB” value [8, 25] was ≥16. For the same compound, the MIC ([8]; ATCC19606, A. baumannii ATCC 19606, +0.06 μg/ml PB, 2nd experiment, read-out: MIC) was ≤ 0.03 µg/mL, the MIC ([8]; ATCC19606, read-out: MIC +0.06 μg/ml PB, A. baumannii ATCC 19606, +0.06 μg/ml polymyxin B, 1st experiment) was ≤ 0.03 µg/mL and the “MIC without PB/MIC + PB” value ([9]; +[…] PB, 2nd experiment) was ≥128. For the same compound, the “MIC without PB/MIC + PB” value ([9]; ratio, PB […], 1st experiment) was ≥512, the MIC ([9]; J2, A. baumannii J2, +[…] PB, 2nd experiment, read-out: MIC) was ≤ 0.03 µg/mL and the MIC ([9]; J2, read-out: MIC +[…] PB, A. baumannii J2, +[…] polymyxin B, 1st experiment) was ≤ 0.03 µg/mL. The “MIC +0.06 μg/ml PB” value ([10]; A baumannii A 401, +0.06 μg/ml polymyxin B, 1st experiment) was 0.5 µg/mL, the “MIC without PB/MIC + PB” value ([10]; A baumannii A 401, ratio, PB 0.06 μg/ml, 1st experiment) was 8 and the MIC ([10]; Acinetobacter baumannii, A401, A baumannii A 401, +0.06 μg/ml PB, 2nd experiment, read-out: MIC) was 1 µg/mL (≈ 2.84 µM). For the same compound, the “MIC +0.06 μg/ml PB” value ([11]; +0.06 μg/ml polymyxin B) was 1 µg/mL, the “MIC without PB/MIC + PB” value ([11]; ratio, PB 0.06 μg/ml) was 32 and the “MIC without PB/MIC + PB” value ([12]; A. baumannii A473) was 64. The MIC ([12]; Acinetobacter baumannii, A473, A. baumannii A473, read-out: MIC) was 0.06 µg/mL (≈ 0.17 µM), the “MIC without PB/MIC + PB” value ([13]; +[…] PB, 2nd experiment) was ≥256 and the “MIC without PB/MIC + PB” value ([13]; ratio, PB […], 1st experiment) was ≥256. For the same compound, the MIC ([13]; A489, A. baumannii A489, +[…] PB, 2nd experiment, read-out: MIC) was ≤ 0.03 µg/mL, the MIC ([13]; A489, read-out: MIC +[…] PB, A. baumannii A489, +[…] polymyxin B, 1st experiment) was ≤ 0.03 µg/mL and the “MIC without PB/MIC + PB” value ([14]; A. baumannii A472, ratio, PB […], 1st experiment) was ≥128. The MIC ([14]; A472, A. baumannii A472, +[…] PB, 2nd experiment, read-out: MIC) was ≤ 0.03 µg/mL, the MIC ([14]; A472, read-out: MIC +[…] PB, A. baumannii A472, +[…] polymyxin B, 1st experiment) was ≤ 0.03 µg/mL and the “MIC without PB/MIC + PB” value ([15]; Acinetobacter spp. H064200250 (OXA51), +[…] PB, 2nd experiment) was ≥512. For the same compound, the “MIC without PB/MIC + PB” value ([15]; Acinetobacter spp. H064200250, ratio, PB […], 1st experiment) was 32, the MIC ([15]; Acinetobacter spp. H064200250 (OXA51), +[…] PB, 2nd experiment, read-out: MIC) was ≤ 0.03 µg/mL and the MIC ([15]; read-out: MIC +[…] PB, Acinetobacter spp. H064200250, +[…] polymyxin B, 1st experiment) was 0.25 µg/mL (≈ 0.709 µM). The “MIC without PB/MIC + PB” value ([16]; +0.06 μg/ml PB, 2nd experiment) was ≥64, the “MIC without PB/MIC + PB” value [16, 25] was ≥64 and the MIC ([16]; A387, A. baumannii A387, +0.06 μg/ml PB, 2nd experiment, read-out: MIC) was ≤ 0.03 µg/mL. The MIC ([16]; A387, read-out: MIC +0.06 μg/ml PB, A. baumannii A387, +0.06 μg/ml polymyxin B, 1st experiment) was ≤ 0.03 µg/mL, the MBC ([17]; J2, A. baumannii J2, +[…] PB, 2nd experiment, read-out: MBC) was ≤ 0.03 µg/mL and the MBC ([17]; J2, read-out: MBC +[…] PB, A. baumannii J2, +[…] polymyxin B, 1st experiment) was ≤ 0.03 µg/mL. The MBC ([18]; A472, A. baumannii A472, +[…] PB, 2nd experiment, read-out: MBC) was ≤ 0.03 µg/mL, the MBC ([18]; A472, read-out: MBC +[…] PB, A. baumannii A472, +[…] polymyxin B, 1st experiment) was ≤ 0.03 µg/mL and the MBC ([19]; Acinetobacter spp. H064200250 (OXA51), +[…] PB, 2nd experiment, read-out: MBC) was ≤ 0.03 µg/mL. The MBC ([19]; read-out: MBC +[…] PB, Acinetobacter spp. H064200250, +[…] polymyxin B, 1st experiment) was 0.25 µg/mL (≈ 0.709 µM), the MBC ([20]; A387, A. baumannii A387, +0.06 μg/ml PB, 2nd experiment, read-out: MBC) was ≤ 0.03 µg/mL and the MBC ([20]; A387, read-out: MBC +0.06 μg/ml PB, A. baumannii A387, +0.06 μg/ml polymyxin B, 1st experiment) was ≤ 0.03 µg/mL. The MBC [21] was 0.125 µg/mL (≈ 0.355 µM), the MBC ([22]; NCTC13301, A. baumannii NCTC 13301, +[…] PB, preliminary MBC, 2nd experiment, read-out: MBC) was ≤ 0.03 µg/mL and the MBC ([22]; NCTC13301, read-out: MBC +[…] PB) was 0.06 µg/mL (≈ 0.17 µM). It also gave an MBC ([23]; A. baumannii A14, +0.06 μg/ml PB) of 2 µg/mL (≈ 5.68 µM), an MBC ([23]; Acinetobacter baumannii, A14, A. baumannii A14, without PB, read-out: MBC) of 16 µg/mL (≈ 45.4 µM) and an MBC [24] of 0.06 µg/mL (≈ 0.17 µM).
